Columns and labels:
[1] = test system: cloned tumor cells of mice and human beings; experiment: Direct cytotoxicity of HD-2 relative to cisplatin over the clones; type: cell-based; conditions: 48 hours of incubation, mean over clones of Table 5
Procedure: Cloned tumor cells of P388 leukemia, L1210 leukemia, L5178Y lymphoma, Colon26-M3.1 carcinoma, and B16-BL6 melanoma, from mice, and K562 leukemia, liver carcinoma HEP-G2, Hs578T breast cancer, AN-3-CA adenocarcinoma, DLD colon carcinoma, and HeLa epitheloid carcinoma, from human beings, were cultured in EMM, DMEM, or RMPI-1640 culture media containing 7.5% fetal bovine serum (FBS), as described in ATCC manual. […] Tumor cells in test wells were incubated in 5% CO2 incubator at 37° C. for 2 days.

B16-BL6 melanoma = experiment: Neovascularization and tumor size after intradermal melanoma injection; type: in vivo, C57BL/6 mice; conditions: one milligram orally three days after tumor injection
Procedure: The in vivo mechanism of anticancer effect of HD-2 was studied in mice. After suspending 4×10^5 cells of B16-BL6 melanoma in 50% PBS, they were injected intradermally into 2 sites on the back of 6- to 7-week old C57BL/6 mice. Three days after the tumor injection, one milligram of HD-2 was given orally and size of inoculated melanoma and number of blood vessels at and around tumor sites were measured. Control group was treated with oral administration of PBS.

## O1[As]2O[As]3O[As]1O[As](O2)O3 [HD-2, arsenic hexoxide (As4O6)]
[1]
  direct cytotoxicity, times as high as cisplatin: 50 times
B16-BL6 melanoma
  size of solid tumor mass: decreased significantly
B16-BL6 melanoma; FIG. 5
  number of new blood vessels at and around tumor sites: tended to decrease

Source: patent US7261906B2, “Anti-cancer therapy agent of arsenic hexoxide (As4O6) of a natural chemical substance and its pharmaceutical composition” (priority 1998, dated 2007)
